Measurements reported in patent US20250282795A1, “EGFR Inhibitors in cancer treatment” (Celyn Therapeutics, Inc., priority 2022, published 2025).

Key:
Format in all cases: cell-based
[1] = Cellular growth inhibition assay (CellTiter-Glo), Ba/F3 (Empty vector); conditions: mouse, Ba/F3 cells with empty vector; Ba/F3 (Empty vector) with 10 ng/ml rmIL-3, 3 days of incubation
Description: (§1) Example E. Cellular Growth Inhibition Assay
(§2) Ba/F3(Empty vector) (Signosis), Ba/F3(Wild type) (Signosis), Ba/F3(L^858R+T790M) (Signosis), Ba/F3(A767_dupASV) (Signosis), Ba/F3(D770_N771insSVD) (Signosis), Ba/F3(H773_V774insNPH) (Signosis) were seeded at a density of 4000 cells per well in a CellBIND® 384-well Flat Clear Bottom Black Polystyrene Microplates (Coming, USA, Cat #3770) in 45 μl total volume of RPMI (PanEco, Cat #C330, Russia) with […] (HyClone, Cat #SV30160.03) and with 10 ng/ml rmIL-3 (RD systems, USA, Cat #403-ML-025) (for BaBF3(Empty vector)) and with 10 ng/ml rhEGF (ThermoFisher, USA, Cat #PHG0311L) (for BaCF3(Wild type)). 500× compounds solutions in DMSO (Sigma Cat #D2650) were prepared into Cmpnds plate (DiamondWell Plate, Axigen, Cat #P-384-120SQ-C—S) and DMSO only control was included. 1.l of 500× compounds (Cmpnds plate) was added to 49 µl of culture medium into Dilution plate (Diamond Well Plate, Axigen, Cat #P-384-120SQ-C—S), mixed and then 5 μl of 10× compounds solutions were transferred to cells followed by centrifugation at 100 g for 1 min. Final DMSO concentration was 0.2% o. After 3 days of incubation 10.l of CellTiter-Glo (Promega, CAT #G7572) were added to the cells, plate was centrifuged at 100 g for 1 min and luminescence signal was measured using Microplate Reader (CLARIOStar).

[2] = test system: Ba/F3 (H773_V774insSVD); assay: Cellular growth inhibition assay (CellTiter-Glo), Ba/F3 (H773_V774insSVD); conditions: Mus musculus, BaF3, 72 h; 3 days of incubation; read-out: Ba/F3 (H773_V774 insSVD) CC50
[3] = test system: Ba/F3 (L858R + T790M); assay: Cellular growth inhibition assay (CellTiter-Glo), Ba/F3 (L858R+T790M); conditions: Mus musculus, BaF3, 72 h; 3 days of incubation
Description: as §1, §2

[4] = test system: Ba/F3 (D770_N771insSVD); assay: Cellular growth inhibition assay (CellTiter-Glo), Ba/F3 (D770_N771insSVD); conditions: Mus musculus, BaF3, 72 h; 3 days of incubation; read-out: Ba/F3 (D770_N771 insSVD) CC50
Description: as §1, §2

[5] = test system: Ba/F3 (A767_dupASV); assay: Cellular growth inhibition assay (CellTiter-Glo), Ba/F3 (A767_dupASV); conditions: Mus musculus, BaF3, 72 h; 3 days of incubation; read-out: Ba/F3 (A767_dup ASV) CC50
Description: as §1, §2

| Compound | CC50 at 3 days [1] [µM] | CC50 [2] [µM] | CC50 [3] [µM] | CC50 [4] [µM] | CC50 [5] [µM] |
| --- | --- | --- | --- | --- | --- |
| COc1c(F)cccc1Nc1c2[nH]c3c1C(=O)NC[C@@H]3CCCN1CC[C@@H](COc3cnccc3-2)C1 (stereo in doubt) [Compound 162, 20-[(3-Fluoro-2-methoxyphenyl)amino]-6,7,8,9,11,12,13,13a,14,15-decahydro-7,10-methano-17,19-methenodipyrido[3,4-b:4′,3′-f][1,5,11]oxadiazacyclopentadecin-16(18H)-one] | > 10 | > 10 | > 10 | > 10 | > 10 |
| COc1c(F)cccc1Nc1c2[nH]c3c1C(=O)NC[C@H]3CCCN1CC[C@@H](COc3cnccc3-2)C1 (stereo in doubt) [Compound 163, 20-[(3-Fluoro-2-methoxyphenyl)amino]-6,7,8,9,11,12,13,13a,14,15-decahydro-7,10-methano-17,19-methenodipyrido[3,4-b:4′,3′-f][1,5,11]oxadiazacyclopentadecin-16(18H)-one] | > 10 | 0.1 to 1 | > 10 | 0.1 to 1 | 0.01 to 0.1 |
| COc1c(F)cccc1Nc1c2[nH]c3c1C(=O)NCC3CCCN1CCCC(COc3cnccc3-2)C1 (centres unmarked) [Compound 12, 21-[(3-Fluoro-2-methoxyphenyl)amino]-7,8,9,10,12,13,14,14a,15,16-decahydro-6H-7,11-methano-18,20-methenodipyrido[3,4-b:4′,3′-f][1,5,11]oxadiazacyclohexadecin-17(19H)-one] | > 10 | > 10 | > 10 | 1 to 10 | 0.1 to 1 |
| COc1c(F)cccc1Nc1c2[nH]c3c1C(=O)NCC3CCCCCOc1cnccc1-2 (centres unmarked) [Compound 101, 1^3-((3-Fluoro-2-methoxyphenyl)amino)-1^4,1^5,1^6,1^7-tetrahydro-l^1H-3-oxa-1(2,7)-pyrrolo[3,2-c]pyridina-2(4,3)-pyridinacyclooctaphan-1^4-one] | > 10 | 0.1 to 1 | 1 to 10 | 0.1 to 1 | 0.01 to 0.1 |
| COc1c(F)cccc1Nc1c2[nH]c3c1C(=O)NCC3CCCCN1CC(COc3cnccc3-2)C1 (centres unmarked) [Compound 123, 20-(3-fluoro-2-methoxyanilino)-7,8,11,12,13,13a,14,15-octahydro-6H,10H-7,9-methano-17,19-(metheno)dipyrido[3,4-b: 4′,3′-f][1,5,12]oxadiazacyclopentadecin-16(18H)-one] | 1 to 10 | 0.1 to 1 | 0.1 to 1 | 0.01 to 0.1 | 0.001 to 0.01 |
| COc1c(F)cccc1Nc1c2[nH]c3c1C(=O)NC(CCCCOCCOc1cnccc1-2)C3 (centres unmarked) [Compound 133, 20-(3-fluoro-2-methoxyanilino)-2,3,5,6,7,8,9,10-octahydro-9,13-methano-12,15-(metheno)pyrido[3,4-e][1,4,8,12]dioxadiazacycloheptadecin-11(14H)-one] | > 10 | > 10 | > 10 | > 10 | 1 to 10 |
| COc1c(F)cccc1Nc1c2[nH]c3c1C(=O)NCC3CC=CCN1CCC(CC1)COc1cnccc1-2 (centres unmarked) [Compound 135, 21-(3-fluoro-2-methoxyanilino)-6,7,8,9,14,14a,15,16-octahydro-11H-7,10-ethano-18,20-(metheno)dipyrido[3,4-b: 4′,3′-f][1,5,12]oxadiazacyclohexadecin-17(19H)-one] | > 10 | > 10 | > 10 | > 10 | > 10 |
| COc1c(F)cccc1Nc1c2[nH]c3c1C(=O)NCC3CCCCN1CCC(CC1)COc1cnccc1-2 (centres unmarked) [Compound 136, 21-[(3-Fluoro-2-methoxyphenyl)amino]-6,7,8,9,12,13,14,14a,15,16-decahydro-11H-7,10-ethano-18,20-methenodipyrido[3,4-b:4′,3′-f][1,5,12]oxadiazacyclohexadecin-17(19H)-one] | > 10 | > 10 | > 10 | > 10 | 1 to 10 |
| COc1c(F)cccc1Nc1c2[nH]c3c1C(=O)NCC3CCCOCCCCCCN1CCC(CC1)Oc1cnccc1-2 (centres unmarked) [Compound 137, 28-(3-fluoro-2-methoxyanilino)-1,2,13,14,16,17,18,19,20,21,23,24,25,25a-tetradecahydro-12H-12,15-ethano-4,6-(metheno)dipyrido[3,4-b: 4′,3′-f][1,11,5,18]dioxadiazacyclohenicosin-3(5H)-one] | > 10 | 1 to 10 | 1 to 10 | 1 to 10 | 0.1 to 1 |
| COc1c(F)cccc1Nc1c2[nH]c3c1C(=O)NCC3CC(=O)N1CC(CCOc3cnccc3-2)C1 (centres unmarked) [Compound 139, 19-(3-fluoro-2-methoxyanilino)-6,7,8,9,12,12a,13,14-octahydro-11H-8,10-methano-16,18-(metheno)dipyrido[3,4-b: 4′,3′-f][1,5,10]oxadiazacyclotetradecine-11,15(17H)-dione] | > 10 | 1 to 10 | > 10 | 1 to 10 | 0.1 to 1 |
| COc1c(F)cccc1Nc1c2[nH]c3c1C(=O)NCC3CC(=O)N[C@@H](C)C(=O)NCCCOc1cnccc1-2 (stereo partly drawn) [Compound 140, (11S)-21-(3-fluoro-2-methoxyanilino)-11-methyl-6,7,8,9,11,12,14,14a,15,16-decahydro-18,20-(metheno)dipyrido[3,4-k: 4′,3′-o][1,5,8,13]oxatriazacyclohexadecine-10,13,17(19H)-trione] | > 10 | > 10 | > 10 | > 10 | 1 to 10 |
| COc1c(F)cccc1Nc1c2[nH]c3c1C(=O)NCC3CC(=O)N[C@H](C)C(=O)NCCCOc1cnccc1-2 (stereo partly drawn) [Compound 141, (11R)-21-(3-fluoro-2-methoxyanilino)-11-methyl-6,7,8,9,11,12,14,14a,15,16-decahydro-18,20-(metheno)dipyrido[3,4-k: 4′,3′-o][1,5,8,13]oxatriazacyclohexadecine-10,13,17(19H)-trione] | > 10 | > 10 | > 10 | 1 to 10 | 0.1 to 1 |
| COc1c(F)cccc1Nc1c2[nH]c3c1C(=O)NCC3CCCOCCNCCCOc1cnccc1-2 (centres unmarked) [Compound 143, 22-(3-fluoro-2-methoxyanilino)-6,7,8,9,10,11,13,14,15,15a,16,17-dodecahydro-19,21-(metheno)dipyrido[3,4-i: 4′,3′-m][1,8,4,12]dioxadiazacycloheptadecin-18(20H)-one] | > 10 | > 10 | > 10 | > 10 | > 10 |
| COc1c(F)cccc1Nc1c2[nH]c3c1C(=O)NC[C@H]3CCCN1CCO[C@H](COc3cnccc3-2)C1 [Compound 158, (7S)-21-[(3-Fluoro-2-methoxyphenyl)amino]-6,7,9,10,12,13,14,14a,15,16-decahydro-7,11-methano-18,20-methenodipyrido[3,4-k:4′,3′-o][1,4,7,13]dioxadiazacyclohexadecin-17(19H)-one] | 1 to 10 | 1 to 10 | > 10 | 1 to 10 | 0.1 to 1 |
| COc1c(F)cccc1Nc1c2[nH]c3c1C(=O)NCC3CCCCN(C(C)C)CCOc1cnccc1-2 (centres unmarked) [Compound 159, 19-(3-fluoro-2-methoxyanilino)-8-(propan-2-yl)-6,7,8,9,10,11,12,12a,13,14-decahydro-16,18-(metheno)dipyrido[3,4-i: 4′,3′-m][1,4,11]oxadiazacyclotetradecin-15(17H)-one] | > 10 | 1 to 10 | > 10 | 1 to 10 | 0.1 to 1 |
| COc1c(F)cccc1Nc1c2[nH]c3c1C(=O)NCC3CCCN1CC(COc3cnccc3-2)C1 (centres unmarked) [Compound 160, 19-[(3-Fluoro-2-methoxyphenyl)amino]-7,8,10,11,12,12a,13,14-octahydro-6H-7,9-methano-16,18-methenodipyrido[3,4-b:4′,3′-f][1,5,11]oxadiazacyclotetradecin-15(17H)-one] | > 10 | 1 to 10 | > 10 | 1 to 10 | 0.1 to 1 |
